We go through 33 compounds from patent publication US10669242B2 (priority 2016, dated 2020).

For the assay, the target named is T1, recombinant glucosyltransferase domain of C. difficile Toxin B/TcdB (Clostridioides difficile, UniProt P18177).
T1 construct: 6-His (C); purchased R&D Systems 6246-GT
The experiment in a line: biochemical.

Where a name gives a salt, the structure may show the parent alone.

T1 sequence (P18177 1-543): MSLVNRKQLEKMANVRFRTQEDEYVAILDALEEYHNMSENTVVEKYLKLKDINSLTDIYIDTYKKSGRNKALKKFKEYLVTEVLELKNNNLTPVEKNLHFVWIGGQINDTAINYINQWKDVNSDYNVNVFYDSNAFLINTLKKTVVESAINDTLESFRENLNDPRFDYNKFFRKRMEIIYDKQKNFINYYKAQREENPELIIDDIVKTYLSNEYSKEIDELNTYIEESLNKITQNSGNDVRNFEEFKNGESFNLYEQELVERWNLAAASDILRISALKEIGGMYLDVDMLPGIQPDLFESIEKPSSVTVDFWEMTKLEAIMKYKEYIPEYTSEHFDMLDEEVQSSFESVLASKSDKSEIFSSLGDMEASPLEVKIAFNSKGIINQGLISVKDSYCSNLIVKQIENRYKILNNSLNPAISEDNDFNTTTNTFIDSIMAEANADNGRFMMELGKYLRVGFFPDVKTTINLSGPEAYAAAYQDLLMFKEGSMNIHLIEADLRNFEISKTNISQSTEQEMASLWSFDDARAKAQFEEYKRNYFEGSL

Broadly, the IC50 is the concentration that inhibits the measured activity by half. On to `COc1cnc(NC(=O)c2ccc(CN3C(=O)c4ccc(Cl)cc4NC(=O)[C@H]3Cc3ccccn3)cc2)nc1` [Example 5a, (R)-4-((8-chloro-2,5-dioxo-3-(pyridin-2-ylmethyl)-2,3-dihydro-1H-benzo[e][1,4]diazepin-4(5H)-yl)methyl)-N-(5-methoxypyrimidin-2-yl)benzamide], for which the IC50 is less than 100 nM.

Consider `O=C(Nc1ccccn1)c1ccc(C(=O)N2Cc3ccc(Cl)cc3NC(=O)[C@H]2Cc2ccccn2)cc1` [Example 19i, (R)-4-(8-chloro-2-oxo-3-(pyridin-2-ylmethyl)-2,3,4,5-tetrahydro-1H-benzo[e][1,4]diazepine-4-carbonyl)-N-(pyridin-2-yl)benzamide], for which the IC50 is 1000 to 10000 nM. The same measure for `O=C(Nc1ccc(CN2C(=O)c3ccc(Cl)cc3NC(=O)[C@H]2Cc2ccccn2)cc1)c1cnccn1` [Example 27d]: 100 to 999 nM; for `Cc1cccnc1C(=O)c1ccc(CN2C(=O)c3ccc(Cl)cc3NC(=O)[C@H]2Cc2ccccn2)cc1F` [Example 11i, (R)-8-chloro-4-(3-fluoro-4-(3-methylpicolinoyl)benzyl)-3-(pyridin-2-ylmethyl)-3,4-dihydro-1H-benzo[e][1,4]diazepine-2,5-dione]: 1000 to 10000 nM; for `COc1cnc(NC(=O)[C@H]2CC[C@H](CN3C(=O)c4ccc(Cl)cc4NC(=O)[C@H]3Cc3ccccn3)CC2)nc1` [Example 5ax, (1R,4r)-4-(((R)-8-chloro-2,5-dioxo-3-(pyridin-2-ylmethyl)-2,3-dihydro-1H-benzo[e][1,4]diazepin-4(5H)-yl)methyl)-N-(5-methoxypyrimidin-2-yl)cyclohexanecarboxamide]: less than 100 nM. On to `C[C@H]1C(=O)Nc2cc(Cl)ccc2C(=O)N1Cc1ccc(C(=O)O)cc1` [Example 3b], for which the IC50 is 10000 to 35000 nM. The same measure for `O=C(O)c1ccc(CN2C(=O)c3ccc(Cl)cc3NC(=O)[C@H]2Cc2ccccn2)cc1-c1cccnc1` [Example 8m, (R)-4-((8-chloro-2,5-dioxo-3-(pyridin-2-ylmethyl)-2,3-dihydro-1H-benzo[e][1,4]diazepin-4(5H)-yl)methyl)-2-(pyridin-3-yl)benzoic acid]: 1000 to 10000 nM; for `O=C(O)c1c(Cl)cc(CN2C(=O)c3ccc(Cl)cc3NC(=O)[C@H]2Cc2ccccn2)cc1Cl` [Example 7c, (R)-2,6-dichloro-4-((8-chloro-2,5-dioxo-3-(pyridin-2-ylmethyl)-2,3-dihydro-1H-benzo[e][1,4]diazepin-4(5H)-yl)methyl)benzoic acid]: 1000 to 10000 nM. The same measure for `CCc1ccc(NC(=O)c2ccc(CN3C(=O)c4ccc(Cl)cc4NC(=O)[C@H]3Cc3ccccn3)cc2)nc1` [Example 4ap, (R)-4-((8-chloro-2,5-dioxo-3-(pyridin-2-ylmethyl)-2,3-dihydro-1H-benzo[e][1,4]diazepin-4(5H)-yl)methyl)-N-(5-ethylpyridin-2-yl)benzamide]: less than 100 nM; for `Cc1nsc(NC(=O)c2ccc(CN3C(=O)c4ccc(Cl)cc4NC(=O)[C@H]3Cc3ccccn3)cc2)n1` [Example 4bk, (R)-4-((8-chloro-2,5-dioxo-3-(pyridin-2-ylmethyl)-2,3-dihydro-1H-benzo[e][1,4]diazepin-4(5H)-yl)methyl)-N-(3-methyl-1,2,4-thiadiazol-5-yl)benzamide]: 10000 to 35000 nM. The result for `O=C(CO)Nc1ccc(CN2C(=O)c3ccc(Cl)cc3NC(=O)[C@H]2Cc2ccccn2)cc1` [Example 27b] reads 100 to 999 nM. Regarding `Cc1ccc(S(=O)(=O)NC(=O)c2ccc(CN3C(=O)c4ccc(Cl)cc4NC(=O)[C@H]3Cc3cccnc3)cc2)cc1` [Example 15e, (R)-4-((8-chloro-2,5-dioxo-3-(pyridin-3-ylmethyl)-2,3-dihydro-1H-benzo[e][1,4]diazepin-4(5H)-yl)methyl)-N-tosylbenzamide], the IC50 was 1000 to 10000 nM. The same measure for `O=C(Nc1ccc(CN2C(=O)c3ccc(Cl)cc3NC(=O)[C@H]2Cc2ccccn2)cc1)c1ccccn1` [Example 26b]: less than 100 nM. In the case of `O=C1Nc2cc(Cl)ccc2C(=O)N(Cc2ccc(C(=O)N3CCc4cccnc43)c(F)c2)[C@@H]1Cc1ccccn1` [Example 6e, (R)-8-chloro-4-(4-(2,3-dihydro-1H-pyrrolo[2,3-b]pyridine-1-carbonyl)-3-fluorobenzyl)-3-(pyridin-2-ylmethyl)-3,4-dihydro-1H-benzo[e][1,4]diazepine-2,5-dione], the IC50 is 100 to 999 nM.

In the case of `Cc1ccc(C[C@@H]2C(=O)Nc3cc(Cl)ccc3C(=O)N2Cc2ccc(C(=O)O)cc2)cc1` [Example 3h], the IC50 lay within 10000 to 35000 nM. The same measure for `Cc1ccc(NC(=O)c2ccc(CN3C(=O)c4ccc(Cl)cc4NC(=O)[C@H]3CCN3CCN(C)CC3)cc2)nc1` [Example 10d, (R)-4-((8-chloro-3-(2-(4-methylpiperazin-1-yl)ethyl)-2,5-dioxo-2,3-dihydro-1H-benzo[e][1,4]diazepin-4(5H)-yl)methyl)-N-(5-methylpyridin-2-yl)benzamide]: 1000 to 10000 nM; for `O=C(Nc1ccc(CN2C(=O)c3ccc(Cl)cc3NC(=O)[C@H]2Cc2ccccn2)cc1)c1ccncn1` [Example 27c]: 100 to 999 nM.

With `CC(=O)NC(=O)c1ccc(CN2C(=O)c3ccc(Cl)cc3NC(=O)[C@H]2Cc2ccccn2)cc1` [Example 12a, (R)—N-Acetyl-4-((8-chloro-2,5-dioxo-3-(pyridin-2-ylmethyl)-2,3-dihydro-1H-benzo[e][1,4]diazepin-4(5H)-yl)methyl)benzamide], the IC50 is less than 100 nM. The result for `O=C(Nc1ccccn1)c1ccc(CN2C(=O)c3ccc(Cl)cc3NC(=O)C2CC2CCOCC2)cc1` (stereo not drawn) [Example 35e] reads 1000 to 10000 nM.

On to `O=C(Nc1ccccn1)c1ccc(CN2C(=O)c3ccc(Cl)cc3NC(=O)[C@H]2Cc2ccc(Cl)cc2)cc1` [Example 4j, (R)-4-((8-chloro-3-(4-chlorobenzyl)-2,5-dioxo-2,3-dihydro-1H-benzo[e][1,4]diazepin-4(5H)-yl)methyl)-N-(pyridin-2-yl)benzamide], for which the IC50 lay within 1000 to 10000 nM. Take `O=C(O)c1ccc(CN2C(=O)c3ccc(Cl)cc3NC(=O)[C@H]2Cc2ccccn2)cc1-c1ccc(F)cc1` [Example 8d, (R)-5-((8-chloro-2,5-dioxo-3-(pyridin-2-ylmethyl)-2,3-dihydro-1H-benzo[e][1,4]diazepin-4(5H)-yl)methyl)-4′-fluoro-[1,1′-biphenyl]-2-carboxylic acid]: the IC50 lay within 100 to 999 nM. The same measure for `Cc1cnc(NC(=O)c2ccc(CN3C(=O)c4ccc(Cl)cc4NC(=O)[C@H]3Cc3ccccn3)cc2Cl)nc1` [Example 5as, (R)-2-chloro-4-((8-chloro-2,5-dioxo-3-(pyridin-2-ylmethyl)-2,3-dihydro-1H-benzo[e][1,4]diazepin-4(5H)-yl)methyl)-N-(5-methylpyrimidin-2-yl)benzamide]: less than 100 nM; for `Nc1ccc(CN2C(=O)c3ccc(Cl)cc3NC(=O)[C@H]2Cc2ccccn2)cc1` [Example 23a, (R)-4-(4-Aminobenzyl)-8-chloro-3-(pyridin-2-ylmethyl)-3,4-dihydro-1H-benzo[e][1,4]diazepine-2,5-dione]: 1000 to 10000 nM; for `Cc1nnc(NC(=O)c2ccc(CN3C(=O)c4ccc(Cl)cc4NC(=O)[C@H]3Cc3ccccn3)cc2)s1` [Example 4bn, (R)-4-((8-chloro-2,5-dioxo-3-(pyridin-2-ylmethyl)-2,3-dihydro-1H-benzo[e][1,4]diazepin-4(5H)-yl)methyl)-N-(5-methyl-1,3,4-thiadiazol-2-yl)benzamide]: 1000 to 10000 nM. Take `O=C(O)c1ccc(CN2C(=O)c3ccc(Cl)cc3NC(=O)[C@H]2Cc2ccccc2Cl)cc1` [Example 3i]: the IC50 fell in the range of 1000 to 10000 nM.

For the compound `Cc1cccnc1NC(=O)c1ccc(CN2C(=O)c3ccc(Cl)cc3NC(=O)[C@H]2Cc2cccnc2)cc1` [Example 4k, (R)-4-((8-chloro-2,5-dioxo-3-(pyridin-3-ylmethyl)-2,3-dihydro-1H-benzo[e][1,4]diazepin-4(5H)-yl)methyl)-N-(3-methylpyridin-2-yl)benzamide], the IC50 was 100 to 999 nM. The result for `Cc1cccc(-c2cc(CN3C(=O)c4ccc(Cl)cc4NC(=O)[C@H]3Cc3ccccn3)ccc2C(=O)O)c1` [Example 8h, (R)-5-((8-chloro-2,5-dioxo-3-(pyridin-2-ylmethyl)-2,3-dihydro-1H-benzo[e][1,4]diazepin-4(5H)-yl)methyl)-3′-methyl-[1,1′-biphenyl]-2-carboxylic acid] reads 100 to 999 nM; that for `N#Cc1ccc2c(c1)NC(=O)[C@@H](Cc1cccnc1)N(Cc1ccc(C(=O)Nc3ccccn3)cc1)C2=O` [Example 14a, (R)-4-((8-Cyano-2,5-dioxo-3-(pyridin-3-ylmethyl)-2,3-dihydro-1H-benzo[e][1,4]diazepin-4(5H)-yl)methyl)-N-(pyridin-2-yl)benzamide Hydrochloride], less than 100 nM. Regarding `O=C(O)c1ccc(CN2C(=O)c3ccc([N+](=O)[O-])cc3NC(=O)[C@H]2Cc2cccnc2)cc1` [Example 2i], the IC50 was 1000 to 10000 nM. The result for `CC1(C)Cc2cccnc2N1C(=O)c1ccc(CN2C(=O)c3ccc(Cl)cc3NC(=O)[C@H]2Cc2ccccn2)cc1Cl` [Example 4ar, (R)-8-chloro-4-(3-chloro-4-(2,2-dimethyl-2,3-dihydro-1H-pyrrolo[2,3-b]pyridine-1-carbonyl)benzyl)-3-(pyridin-2-ylmethyl)-3,4-dihydro-1H-benzo[e][1,4]diazepine-2,5-dione] reads less than 100 nM.

Take `O=C(O)c1ccc(CN2C(=O)c3ccc(Cl)cc3NC(=O)[C@@H]2Cc2ccc(O)cc2)cc1` [Example 2c]: the IC50 is 10000 to 35000 nM. The same measure for `Cc1ccnc(NC(=O)c2ccc(CN3C(=O)c4ccc(Cl)cc4NC(=O)[C@H]3Cc3cccnc3)cc2)n1` [Example 5i, (R)-4-((8-chloro-2,5-dioxo-3-(pyridin-3-ylmethyl)-2,3-dihydro-1H-benzo[e][1,4]diazepin-4(5H)-yl)methyl)-N-(4-methylpyrimidin-2-yl)benzamide]: less than 100 nM; for `O=C(O)c1ccc(CN2C(=O)c3ccc(Cl)cc3NC(=O)[C@H]2Cc2ccccn2)cc1` [Example 1a, (R)-4-((8-Chloro-2,5-dioxo-3-(pyridin-2-ylmethyl)-2,3-dihydro-1H-benzo[e][1,4]diazepin-4(5H)-yl)methyl)benzoic Acid]: 100 to 999 nM.
